Paper PMC7243115, “Evaluation of the Anti-Tumor Activity of Small Molecules Targeting Eph/Ephrins in APC ^min/J Mice” (Pharmaceuticals, 2020)
Values joined by “and” are separate entries in the source; they are usually repeats but may differ in a detail not shown here. Equal values may be shown once.

Experiments:
[1] = cited from earlier work
[2] = system: adenomas in APC ^min/J mice; assay: Intestinal tumorigenesis model: number and diameter of adenomas (histological analysis); assay type: in vivo
Protocol: UniPR129, UniPR139 and UniPR1331 were tested in an animal model of intestinal tumorigenesis, based on the usage of APC ^min/J mice, which spontaneously develop multiple and large adenomas over intestinal tract due to a gene mutation. […] Five weeks old mice have been treated with the three compounds at 30 mg/kg dose for 8 weeks every other day following previous observations. The weight of the mice has been monitored from the beginning of the treatment until the end of the study to follow the course of the disease and to detect potentially toxic effects of compounds.
(§1) 5 weeks old C57BL/6J-APC ^min/J male mice were purchased from Jackson Laboratory (Bar Harbor, ME USA). Mice were weighted and randomly subdivided in four groups: • Control group: Oral administration of Methocel 0.5% every other day; • Three treatment groups: oral administration of UniPR129, UniPR139 or UniPR1331 30 mg/kg in Methocel 0.5% every other day.
(§2) The experiment was carried out for 8 weeks and over this period the weight was monitored once a week. At the end of the experiment, all mice were sacrificed by carbon dioxide inhalation and blood samples were collected via intracardiac […] and used for evaluation of hematological parameters.
The whole intestine of all the mice was resected, washed with sterile PBS and fixed with 4% formalin. After 24 h, the intestine was longitudinally divided in 6 portions (1-duodenum, 2-jejunum, 3-ileum, 4-caecum, 5-colon, 6-rectum) and each portion was embedded in paraffin and sectioned at 5 μm with microtome (Leica). Slides were dried at 37 °C for 24 h, then deparaffinized in xylene, rehydrated with decreasing concentration of alcohol and stained with hematoxylin and eosin.
Histological slides were examined with Nikon Eclipse E800 microscope (Nikon Corporation, Japan) and photographs of sections were taken at 2x with Camera Nikon DIGITAL SIGHT attached to the microscope. The observation of longitudinal sections of the small intestine allowed to determine the distribution and number of adenomatous lesions; four longitudinal sections have been prepared for each segment of small intestine. The microscopic images of the ileum have been subsequently analyzed, using the ImageJ software, to determine the diameter and area of each adenoma.

[3] = system: APC ^min/J mice; assay type: in vivo; settings: 30 mg/kg oral every other day, 8 weeks
Protocol: UniPR129, UniPR139 and UniPR1331 were tested in an animal model of intestinal tumorigenesis, based on the usage of APC ^min/J mice, which spontaneously develop multiple and large adenomas over intestinal tract due to a gene mutation.
as §1, §2
Hematological and blood chemistry parameters were undergone to one-way ANOVA to compare control group to treatment groups.

[4] = of the total number of adenomas in the ileum section

SMILES: C[C@H](CCC(=O)N[C@H](CC(=O)O)Cc1c[nH]c2ccccc12)[C@H]1CC[C@H]2[C@@H]3CC[C@@H]4C[C@H](O)CC[C@]4(C)[C@H]3CC[C@]12C [UniPR129]
- bioavailability after oral administration [1]: not be bioavailable after oral administration
- first pass hepatic metabolism [1]: extensive first pass hepatic metabolism
- efficacy in the model of intestinal tumorigenesis ([2]; 30 mg/kg oral every other day, 8 weeks): the only compound to show positive results
- Ileum Adenomas, Mean (number) ([2]; 30 mg/kg oral every other day, 8 weeks, n = 7, CTR 13.14): 7.57 ± 2.07 and 7.57
- Overall Intestine Adenomas, Mean (number) ([2]; 30 mg/kg oral every other day, 8 weeks, n = 7, CTR 19.71): 14.00
- reduction of the formation of adenomas in the ileum ([2]; 30 mg/kg oral, 8 weeks, vs control): 1.6 times
- mean adenoma diameter in the ileum ([2]; 30 mg/kg oral, ± 0.28 (SD), control 0.94 mm ± 0.39 (SD)): 0.71 mm
- number of medium adenomas (1 to 1.5 mm) in the ileum ([2]; 30 mg/kg oral, ± SD, CTR 29 ± 2.5): 11 ± 1.3
- Percentage of adenomas, class Large (1.5 to 2 mm) [2, 4]: 0%
- Percentage of adenomas, class Medium (1 to 1.5 mm) [2, 4]: 21%
- Percentage of adenomas, class Small (0.5 to 1 mm) [2, 4]: 51%
- Percentage of adenomas, class Very Large (> 2 mm) [2, 4]: 0%
- Percentage of adenomas, class Very Small (< 0.5 mm) [2, 4]: 28%
- tolerability [3]: well tolerated
- ALT ([3]; mean ± SD, n = 7): 23.43 ± 3.78 UI
- AST/GOT ([3]; mean ± SD, n = 7): 108.86 ± 47.11 UI
- Basophils ([3]; mean ± SD, n = 7): 0.00 ± 0.00%
- Creatinine ([3]; mean ± SD, n = 7): 0.22 ± 0.08 mg/dL
- Eosinophils ([3]; mean ± SD, n = 7): 0.10 ± 0.10%
- Glucose ([3]; mean ± SD, n = 7): 161.10 ± 21.18 mg/dL
- Haematocrit ([3]; mean ± SD, n = 7): 26.69 ± 6.56%
- Haemoglobin ([3]; mean ± SD, n = 7): 8.71 ± 2.15 g/dL
- Lymphocytes ([3]; mean ± SD, n = 7): 93.29 ± 6.14%
- Mean cellular Volume ([3]; mean ± SD, n = 7): 53.87 ± 2.62 fL
- Mean platelet Volume ([3]; mean ± SD, n = 7): 4.91 ± 0.43 fL
- Monocytes ([3]; mean ± SD, n = 7): 0.43 ± 0.31%
- Neutrophils ([3]; mean ± SD, n = 7): 6.20 ± 6.33%
- Platelets ([3]; mean ± SD, n = 7): 1191 ± 186.77 103/µL
- Red cells ([3]; mean ± SD, n = 7): 5.01 ± 1.43 106/µL
- Triglycerides ([3]; mean ± SD, n = 7): 145.10 ± 38.6 mg/dL
- White cells ([3]; mean ± SD, n = 7): 4.83 ± 0.70 103/μL
